The subject of series [1] is Breast-fed infants with a diagnosis of infantile colic. Kind of series: Selected probiotic strains versus Simethicone in the treatment of infantile colic (crying time, 28 days). The class given is in vivo, human. The conditions noted are these: for Crying time (mean minutes per day): N = 30 per group. The source says: Breast-fed infants with a diagnosis of infantile colic are recruited in the Department of Pediatric and Adolescence Science (Drottning Silvias University Hospital, Goteborg). Patients aged 21-90 days, adequate for gestational age with a birth weight between 2500 and 4000 g, with colic symptoms satisfying the Wessel's criteria, and arisen almost 6±1 days before the enrollment, are considered for inclusion in the study (Wessel M A, Cobb J C, Jackson E B, Harris G S, Detwiler A C. Paroxismal fussing in infancy, sometimes called “colic”. Pediatrics 1954; 14: 421-35). All infants enrolled are exclusively breast-fed in order to reduce variability in the intestinal microflora due to variations in the diet, which may in turn have influenced the response to the probiotic. Infants are excluded if they had clinical evidence of chronic illness or gastrointestinal disorders or if they had received either antibiotics or probiotics in the week preceding recruitment.
In this study, colicky infants are randomized to receive the probiotic or Simethicone in the following treatments:
L. reuteri is administered at a dose of 10^8 colony forming units (CFU) in 5 drops of a commercially available MCT-oil (medium chain tri-glyceride oil) suspension 30 min after feeding, once a day for 28 days. MCT oils occur naturally, and the most abundant source is coconut oil. Most MCT oil is refined from coconut oil. MCT oil is a clear light colored liquid with no flavor and low viscosity. This oil suspension is stable for 21 months at 2-8° C. (as documented by the manufacturer, BioGaia AB, Stockholm, Sweden) (alternative source of MCT oil is Akomed R, by Karlshamns AB, Karlshamn, Sweden). During the study, parents are instructed to keep the product in the refrigerator when not in use. Simethicone (S) was given at a dose of 60 mg/day in 3 mL of a commercially available solution (Mylicon Infants Gas Relief Drops, J&J, 7050 Camp Hill Rd., Fort Washington, Pa., 19034-2210, USA) after feeding, twice a day for 28 days. At the enrollment, all mothers are asked to follow a cows' milk-free diet as reported: avoidance of milk, yogurt, fresh and strong cheese, cream, butter, biscuits. Adherence to the diet is monitored with a diet diary maintained for all the treatment period. At day 7, 14, 21 and 28 one of the researches examined the compliance to this diet.
The day on which the pediatrician saw the infant for the first time is defined as Day-1. On this occasion each infant underwent a medical examination and the parents were interviewed in order to obtain background data concerning type of delivery, birth weight and gestational age, family history of gastrointestinal disease and atopy. In particular, the last one is considered positive if the infants had one or more family members (mother, father and/or older sibling) with atopic eczema, allergic rhinitis or asthma. Moreover, any signs and symptoms of atopic disease during the study period were recorded. Parents were also invited to record data concerning daily average crying time and number of colic episodes on the day after the recruitment (Day 0). The doctor randomly assigned the child to any of the study groups. Administration of study products began on Day 1.
Parents are given written information about the study and are asked to record daily number of inconsolable crying episodes and their duration, stool consistency and frequency as well as any observed side effects (constipation, vomiting, cutaneous reactions, etc) starting from Day 0 up to Day 28, using a structured diary. In order to ensure that all the parents noted crying time in a uniform way and to ensure that the infants are given the medication correctly, one of the researchers is always available by phone to help parents.
Each patient is re-examined by the same pediatrician on Days 1, 7, 14, 21 and 28.

Series [2] has as its system colicky symptoms in breast-fed infants. The conditions noted are these: within 7 days of treatment; cited from earlier work.

On to dimethylpolysiloxane [Simethicone], for which the “withdrawal because of any side effect related to the trial” value in series [1] (28 days treatment, 30 infants per group) is on record as “No babies are withdrawn because of any side effect”. Besides, the “Crying time (mean minutes per day)” value in series [1] (Day 0 (before administration), colicky infants) is 205 minutes per day; in series [1] (Day 1, colicky infants), 194 minutes per day; in series [1] (Day 7, colicky infants) it was 172 minutes per day; in series [1] (Day 14, colicky infants) it was 155 minutes per day; in series [1] (Day 21, colicky infants), 148 minutes per day; in series [1] (Day 28, colicky infants), 141 minutes per day. Moreover, in series [2], the “response rate to the treatment” value is reported as 7%.

Source of the values: US9340840B2, “Use of selected lactic acid bacteria for reducing infantile colic” (Biogaia AB, priority 2006, dated 2016).
